The values below are quoted from earlier work in US11291622B2, “Method for dyeing keratinous material, comprising the use of an organosilicon compound, a dyeing compound and a silicon oil” (Henkel AG & Co. KGaA, priority 2018, dated 2022).

Read-outs that look alike come from different tables or passages of the source.

Regarding `O=S(=O)([O-])c1ccc(N=Nc2c(O)ccc3ccccc23)cc1.[Na+]` [Acid Orange 7, sodium salt of 4-[(2-hydroxy-1-naphthyl)azo]benzene sulphonate], the solubility in water entry (25° C.) is “more than 7 g/L”.

For `O=C([O-])C1=NN(c2ccc(S(=O)(=O)[O-])cc2)C(=O)C1N=Nc1ccc(S(=O)(=O)[O-])cc1.[Na+].[Na+].[Na+]` (centres unmarked) [Acid Yellow 23, trisodium salt of 4,5-dihydro-5-oxo-1-(4-sulfophenyl)-4-((4-sulfophenyl)azo)-1H-pyrazole-3-carboxylic acid], the “solubility in water” value (at about 25° C.) is listed as “highly soluble in water”. Turning to `Nc1cc(S(=O)(=O)[O-])cc2cc(S(=O)(=O)[O-])c(N=Nc3ccccc3)c(O)c12.[Na+].[Na+]` [Acid Red 33, diantrium salt of 5-amino-4-hydroxy-3-(phenylazo)-naphthalene-2,7-disulphonate], the solubility in water entry (25° C.) is recorded as “about 2.5 g/L”. As to “mixture of the sodium salts of mono- and disulfonic acids of 2-(2-quinolyl)-1H-indene-1,3(2H)-dione [Acid Yellow 3]”, the solubility in water result (25° C.) is “about 20 g/L”.

Consider `CCN(Cc1cccc(S(=O)(=O)[O-])c1)c1ccc(C(=C2C=CC(=[N+](CC)Cc3cccc(S(=O)(=O)[O-])c3)C=C2)c2ccccc2S(=O)(=O)[O-])cc1.[Na+].[Na+]` [Acid Blue 9], for which the solubility in water result (25° C.) was “more than 20 % by weight”.
